Measured values from patent publication US20100204343A1, “3-(4-HYDROXY-3-METHOXYPHENYL)-1-(4-HYDROXYPHENYL)-1-PROPANONE AND ITS USE AS ANTIOXIDANT” (SYMRISE GmbH & Co. KG, priority 2007, published 2010).
Values after ≈ are worked out from the molar mass of the structure shown.

Experiments:
[1] = Stability studies; assay type: physicochemical; details: in contrast to common antioxidants like Trolox, alpha-tocopherol or green tea extract
[2] = ABTS assay, antioxidant capacity (cell free in vitro test); assay type: biochemical; details: ABTS discolouration measured photometrically at 734 nm; 96-well plates, 5 concentrations
Experimental: The antioxidant capacity of 3-(4-hydroxy-3-methoxyphenyl)-1-(4-hydroxyphenyl)-1-propanone of formula (I) disclosed here was evaluated with the ABTS assay, a cell free in vitro test. The assay principle bases on the chemical reduction being accompanied by discolouration of the green coloured cationic radical 2,2′-Azinobis(3-ethylbenzothiazoline 6-sulfonic acid) (ABTS^+) by antioxidants. The grade of discolouration can be measured photometrically at 734 nm. The compound of formula (I) as well as standard antioxidants like Trolox, a water soluble alpha-tocopherol analog and green tea extract were tested on 96-well microtiter plates at 5 concentrations. Each concentration was tested in double in two independent experiments. IC50 values for the compound of formula (I) as well as for the comparative examples are depicted in table 1.
Therefore, the compound of formula (I) is a highly suitable new product either to protect biological systems from damage caused by free radicals of different type and origin or to extend the shelf life of products comprising highly unstable, easily oxidising molecules.

Structure (SMILES) | stability [1] | IC50 [2] [µg/mL]
COc1cc(CCC(=O)c2ccc(O)cc2)ccc1O [3-(4-hydroxy-3-methoxyphenyl)-1-(4-hydroxyphenyl)-1-propanone] | highly stable | 5 (≈ 18.4 µM)
Cc1c(C)c2c(c(C)c1O)CCC(C)(C(=O)O)O2 (stereo not drawn) [Trolox, 6-hydroxy-2,5,7,8-tetramethylchroman-2-carboxylic acid, reference compound] | – | 6 (≈ 24 µM)
